Measurements reported in PMC5218480 (PLoS ONE, 2017).

Test system: MV-4-11 cells
Assay: Gene expression microarray analysis (Affymetrix PrimeView) and GSEA
Assay type: cell-based, human
Design: RFU PODN (11730768_x_at) / Fold change /veh PODN (11730768_x_at) / RFU LINC00158 (11744669_a_at) / Fold change /veh LINC00158 (11744669_a_at) / RFU DUSP10 (11751237_a_at) / Fold change /veh DUSP10 (11751237_a_at) / RFU ID3 (11757404_x_at) / Fold change /veh ID3 (11757404_x_at) / RFU PLEKHG5 (11737974_s_at) / Fold change /veh PLEKHG5 (11737974_s_at) / RFU LRRC4B (11730491_at) / Fold change /veh LRRC4B (11730491_at) / RFU GIMAP4 (11747438_a_at) / Fold change /veh GIMAP4 (11747438_a_at) / RFU KRT8 (11758183_x_at) / Fold change /veh KRT8 (11758183_x_at) / RFU CNN1 (11734310_a_at) / Fold change /veh CNN1 (11734310_a_at) / RFU VPS37D (11726825_at) / Fold change /veh VPS37D (11726825_at) / RFU C10orf10 (11716522_x_at) / Fold change /veh C10orf10 (11716522_x_at) / RFU KIR2DL2 /// KIR2DL4 /// KIR2DL5A /// KIR2DL5B /// KIR2DS1 /// KIR2DS2 /// KIR2DS3 /// KIR2DS4 /// KIR3DL3 /// KIR3DL3 /// KIR3DS1 (11738374_at) / Fold change /veh KIR2DL2 /// KIR2DL4 /// KIR2DL5A /// KIR2DL5B /// KIR2DS1 /// KIR2DS2 /// KIR2DS3 /// KIR2DS4 /// KIR3DL3 /// KIR3DL3 /// KIR3DS1 (11738374_at) / RFU C1QL1 (11718748_at) / Fold change /veh C1QL1 (11718748_at) / RFU TMPRSS4 (11747572_a_at) / Fold change /veh TMPRSS4 (11747572_a_at) / RFU HAMP (11756126_x_at) / Fold change /veh HAMP (11756126_x_at) / RFU RNFT2 (11725882_a_at) / Fold change /veh RNFT2 (11725882_a_at) / RFU NR4A2 (11747474_a_at) / Fold change /veh NR4A2 (11747474_a_at) / RFU ABCC12 (11746883_a_at) / Fold change /veh ABCC12 (11746883_a_at) / RFU TMEM136 (11760407_x_at) / Fold change /veh TMEM136 (11760407_x_at) / RFU CLDN22 /// WWC2 (11732394_at) / Fold change /veh CLDN22 /// WWC2 (11732394_at) / RFU HLA-DPB1 (11760878_x_at) / Fold change /veh HLA-DPB1 (11760878_x_at) / RFU SPINT1 (11716480_a_at) / Fold change /veh SPINT1 (11716480_a_at) / RFU GAP43 (11754022_s_at) / Fold change /veh GAP43 (11754022_s_at) / RFU A4GNT (11735810_at) / Fold change /veh A4GNT (11735810_at) / RFU PRB3 (11715151_x_at) / Fold change /veh PRB3 (11715151_x_at) / RFU TUBB4B (11761932_at) / Fold change /veh TUBB4B (11761932_at) / RFU CAPN14 (11732068_a_at) / Fold change /veh CAPN14 (11732068_a_at) / RFU TMCC2 (11721928_a_at) / Fold change /veh TMCC2 (11721928_a_at) / RFU IRGQ (11745062_a_at) / Fold change /veh IRGQ (11745062_a_at) / RFU FAM174B (11720279_a_at) / Fold change /veh FAM174B (11720279_a_at) / RFU TMPRSS4 (11748680_a_at) / Fold change /veh TMPRSS4 (11748680_a_at) / RFU FAM212B (11763350_a_at) / Fold change /veh FAM212B (11763350_a_at) / RFU PLEKHG5 (11743358_a_at) / Fold change /veh PLEKHG5 (11743358_a_at) / RFU ZSCAN30 (11745921_a_at) / Fold change /veh ZSCAN30 (11745921_a_at) / RFU CMKLR1 (11741424_a_at) / Fold change /veh CMKLR1 (11741424_a_at) / RFU LOC101060620 /// MAPK8IP1 (11723275_at) / Fold change /veh LOC101060620 /// MAPK8IP1 (11723275_at) / RFU SPTSSB (11747773_x_at) / Fold change /veh SPTSSB (11747773_x_at) / RFU PRSS12 (11739890_at) / Fold change /veh PRSS12 (11739890_at) / RFU BIN1 (11741810_x_at) / Fold change /veh BIN1 (11741810_x_at) / RFU WNT11 (11732464_a_at) / Fold change /veh WNT11 (11732464_a_at) / RFU C10orf10 (11716521_a_at) / Fold change /veh C10orf10 (11716521_a_at) / RFU C5orf56 (11738089_at) / Fold change /veh C5orf56 (11738089_at) / RFU CYB561 (11721691_x_at) / Fold change /veh CYB561 (11721691_x_at) / RFU ANKRD19P (11752326_a_at) / Fold change /veh ANKRD19P (11752326_a_at) / RFU OR2T12 /// OR2T33 /// OR2T8 (11738714_s_at) / Fold change /veh OR2T12 /// OR2T33 /// OR2T8 (11738714_s_at) / RFU VCAN (11748164_a_at) / Fold change /veh VCAN (11748164_a_at) / RFU JSRP1 (11732532_at) / Fold change /veh JSRP1 (11732532_at) / RFU KRTAP10-11 (11738290_x_at) / Fold change /veh KRTAP10-11 (11738290_x_at) / RFU MYO3A (11730013_a_at) / Fold change /veh MYO3A (11730013_a_at) / RFU EBF3 (11725865_a_at) / Fold change /veh EBF3 (11725865_a_at) / RFU CAMK2N1 (11719241_x_at) / Fold change /veh CAMK2N1 (11719241_x_at) / RFU C5orf56 (11738088_a_at) / Fold change /veh C5orf56 (11738088_a_at) / RFU OLFML3 (11715873_a_at) / Fold change /veh OLFML3 (11715873_a_at) / RFU LOC100653217 /// NTM (11731650_a_at) / Fold change /veh LOC100653217 /// NTM (11731650_a_at) / RFU MAPK11 (11762145_a_at) / Fold change /veh MAPK11 (11762145_a_at) / RFU FIZ1 (11724087_x_at) / Fold change /veh FIZ1 (11724087_x_at) / RFU OASL (11726364_x_at) / Fold change /veh OASL (11726364_x_at) / RFU SOX15 (11748057_x_at) / Fold change /veh SOX15 (11748057_x_at) / RFU CD79A (11719716_a_at) / Fold change /veh CD79A (11719716_a_at) / RFU HIST1H1D (11736915_at) / Fold change /veh HIST1H1D (11736915_at) / RFU CASKIN2 (11723855_a_at) / Fold change /veh CASKIN2 (11723855_a_at) / RFU LOC730098 (11760151_x_at) / Fold change /veh LOC730098 (11760151_x_at) / RFU OR4N2 (11742367_at) / Fold change /veh OR4N2 (11742367_at) / RFU PRRT2 (11749266_a_at) / Fold change /veh PRRT2 (11749266_a_at) / RFU SNX32 (11753110_a_at) / Fold change /veh SNX32 (11753110_a_at) / RFU CDHR5 (11726645_a_at) / Fold change /veh CDHR5 (11726645_a_at) / RFU RCAN1 (11760418_a_at) / Fold change /veh RCAN1 (11760418_a_at) / RFU FAM167A (11723789_a_at) / Fold change /veh FAM167A (11723789_a_at) / RFU FAM26E (11764081_at) / Fold change /veh FAM26E (11764081_at) / RFU ISYNA1 (11749810_s_at) / Fold change /veh ISYNA1 (11749810_s_at) / RFU ACY1 (11761880_at) / Fold change /veh ACY1 (11761880_at) / RFU 11764098_at / Fold change /veh 11764098_at / RFU SAMD14 (11745864_x_at) / Fold change /veh SAMD14 (11745864_x_at) / RFU NPB (11741838_a_at) / Fold change /veh NPB (11741838_a_at) / RFU TMPRSS6 (11731388_a_at) / Fold change /veh TMPRSS6 (11731388_a_at) / RFU KRTAP10-2 (11738614_at) / Fold change /veh KRTAP10-2 (11738614_at) / RFU ARHGAP8 /// PRR5-ARHGAP8 (11727945_x_at) / Fold change /veh ARHGAP8 /// PRR5-ARHGAP8 (11727945_x_at) / RFU KRTAP5-7 /// NADSYN1 (11734609_at) / Fold change /veh KRTAP5-7 /// NADSYN1 (11734609_at) / RFU RASL12 (11751679_a_at) / Fold change /veh RASL12 (11751679_a_at) / RFU CDKN2B (11736163_a_at) / Fold change /veh CDKN2B (11736163_a_at) / RFU PRF1 (11729649_at) / Fold change /veh PRF1 (11729649_at) / RFU, ZNF638 /// ZNF638-IT1 / Fold change vs veh, ZNF638 /// ZNF638-IT1 / RFU, PANK3 / Fold change vs veh, PANK3 / RFU, SH3YL1 / Fold change vs veh, SH3YL1 / RFU, ZEB2 / Fold change vs veh, ZEB2 / RFU, NRIP1 / Fold change vs veh, NRIP1 / RFU, PTTG1IP / Fold change vs veh, PTTG1IP / RFU, CAPN2 / Fold change vs veh, CAPN2 / RFU, MED14 / Fold change vs veh, MED14 / RFU, SNORA58 / Fold change vs veh, SNORA58 / RFU, C1orf63 / Fold change vs veh, C1orf63 / RFU, LRRFIP1 / Fold change vs veh, LRRFIP1 / RFU, NDUFAF7 / Fold change vs veh, NDUFAF7 / RFU, SLC12A2 / Fold change vs veh, SLC12A2 / RFU, IBTK / Fold change vs veh, IBTK / RFU, ESF1 / Fold change vs veh, ESF1 / Fold change vs veh, TMEM50B / RFU, TAOK1 / Fold change vs veh, TAOK1 / RFU, ACBD3 / Fold change vs veh, ACBD3 / RFU, TMA16 / Fold change vs veh, TMA16 / RFU, RWDD3 / Fold change vs veh, RWDD3 / RFU, BCAT1 / Fold change vs veh, BCAT1 / RFU, EDEM3 / Fold change vs veh, EDEM3 / RFU, TMEM33 / Fold change vs veh, TMEM33 / RFU, WDR75 / Fold change vs veh, WDR75 / RFU, AHCTF1 / Fold change vs veh, AHCTF1 / RFU, TFRC / Fold change vs veh, TFRC / RFU, ZDHHC17 / Fold change vs veh, ZDHHC17 / RFU, NOM1 / Fold change vs veh, NOM1 / RFU, ARL8B / Fold change vs veh, ARL8B / RFU, ZBTB11 / Fold change vs veh, ZBTB11 / RFU, TAMM41 / Fold change vs veh, TAMM41 / RFU, KIAA1704 /// LOC100996395 / Fold change vs veh, KIAA1704 /// LOC100996395 / RFU, ING1 / Fold change vs veh, ING1 / RFU, TRMT61B / Fold change vs veh, TRMT61B / RFU, FUBP3 / Fold change vs veh, FUBP3 / RFU, TP53 / Fold change vs veh, TP53 / RFU, TNKS2 / Fold change vs veh, TNKS2 / RFU, ZFP14 / Fold change vs veh, ZFP14 / RFU, ACTR2 / Fold change vs veh, ACTR2 / RFU, PPP3R1 / Fold change vs veh, PPP3R1 / RFU, PIK3R1 / Fold change vs veh, PIK3R1 / RFU, HNRNPA1 / Fold change vs veh, HNRNPA1 / RFU, RNF170 / Fold change vs veh, RNF170 / RFU, ZNF28 / Fold change vs veh, ZNF28 / RFU, RNGTT / Fold change vs veh, RNGTT / RFU, OGT / Fold change vs veh, OGT / RFU, BRD1 / Fold change vs veh, BRD1 / RFU, MARS / Fold change vs veh, MARS / RFU, ZNF655 / Fold change vs veh, ZNF655 / RFU, FAHD1 / Fold change vs veh, FAHD1 / RFU, BDP1 / Fold change vs veh, BDP1 / RFU, LRRCC1 / Fold change vs veh, LRRCC1 / RFU, ARID1A / Fold change vs veh, ARID1A / RFU, ZNF146 / Fold change vs veh, ZNF146 / RFU, ZNF330 / Fold change vs veh, ZNF330 / RFU, GPN3 / Fold change vs veh, GPN3 / RFU, C9orf123 / Fold change vs veh, C9orf123 / RFU, N4BP2L2 / Fold change vs veh, N4BP2L2 / RFU, ARFIP1 / Fold change vs veh, ARFIP1 / RFU, FAM179B / Fold change vs veh, FAM179B / RFU, BCL10 / Fold change vs veh, BCL10 / RFU, UHRF1BP1L / Fold change vs veh, UHRF1BP1L / RFU, BET1 / Fold change vs veh, BET1 / RFU, CNOT2 / Fold change vs veh, CNOT2 / RFU, ZNF268 / Fold change vs veh, ZNF268 / Fold change vs veh, ZNF507 / RFU, DGCR2 / Fold change vs veh, DGCR2 / RFU, WDSUB1 / Fold change vs veh, WDSUB1 / Fold change vs veh, HSP90B1 /// MIR3652 / RFU, ADSS / Fold change vs veh, ADSS / RFU, GK / Fold change vs veh, GK / RFU, ZNF148 / Fold change vs veh, ZNF148 / RFU, TAF9 / Fold change vs veh, TAF9 / RFU, SLC1A5 / Fold change vs veh, SLC1A5 / RFU, SLMO2 / Fold change vs veh, SLMO2 / RFU, ABCC4 / Fold change vs veh, ABCC4 / RFU, LOC101060439 /// RAP1B / Fold change vs veh, LOC101060439 /// RAP1B / RFU, RFX7 / Fold change vs veh, RFX7 / RFU, GTPBP10 / Fold change vs veh, GTPBP10 / RFU, CNEP1R1 / Fold change vs veh, CNEP1R1 / RFU, BIVM-ERCC5 /// ERCC5 / Fold change vs veh, BIVM-ERCC5 /// ERCC5 / RFU, ILF3 / Fold change vs veh, ILF3 / RFU 11762660_at / Fold change /veh 11762660_at / RFU VCAN (11757783_s_at) / Fold change /veh VCAN (11757783_s_at) / RFU DDX43 (11728927_at) / Fold change /veh DDX43 (11728927_at) / RFU KRT8 (11758188_x_at) / Fold change /veh KRT8 (11758188_x_at) / RFU NKD1 (11759106_at) / Fold change /veh NKD1 (11759106_at) / RFU SRD5A1 (11742802_a_at) / Fold change /veh SRD5A1 (11742802_a_at) / RFU TPSAB1 /// TPSB2 (11721975_s_at) / Fold change /veh TPSAB1 /// TPSB2 (11721975_s_at) / RFU GSTM3 (11746129_a_at) / Fold change /veh GSTM3 (11746129_a_at) / RFU IL23R (11737362_x_at) / Fold change /veh IL23R (11737362_x_at) / RFU TMEM51 (11727254_a_at) / Fold change /veh TMEM51 (11727254_a_at) / RFU PIWIL2 (11732686_x_at) / Fold change /veh PIWIL2 (11732686_x_at) / RFU ORM1 (11744905_x_at) / Fold change /veh ORM1 (11744905_x_at) / RFU CCDC152 (11743942_at) / Fold change /veh CCDC152 (11743942_at) / RFU ECM1 (11717891_a_at) / Fold change /veh ECM1 (11717891_a_at) / RFU IL23R (11748794_a_at) / Fold change /veh IL23R (11748794_a_at) / RFU TNFAIP8L3 (11732012_x_at) / Fold change /veh TNFAIP8L3 (11732012_x_at) / RFU MBOAT4 (11741988_at) / Fold change /veh MBOAT4 (11741988_at) / RFU 11764193_at / Fold change /veh 11764193_at / RFU TMEM53 (11763286_at) / Fold change /veh TMEM53 (11763286_at) / RFU MAGEB2 (11727129_at) / Fold change /veh MAGEB2 (11727129_at) / RFU TMEM200A (11744735_a_at) / Fold change /veh TMEM200A (11744735_a_at) / RFU CCDC152 (11751479_a_at) / Fold change /veh CCDC152 (11751479_a_at) / RFU FAM211A (11726209_a_at) / Fold change /veh FAM211A (11726209_a_at) / RFU RGS16 (11746705_a_at) / Fold change /veh RGS16 (11746705_a_at) / RFU VCAN (11755009_s_at) / Fold change /veh VCAN (11755009_s_at) / RFU RHOB (11743442_s_at) / Fold change /veh RHOB (11743442_s_at) / RFU RGS16 (11720943_a_at) / Fold change /veh RGS16 (11720943_a_at) / RFU RGS16 (11720944_at) / Fold change /veh RGS16 (11720944_at) / RFU, VPS4B / Fold change vs veh, VPS4B / RFU, CREB1 / Fold change vs veh, CREB1 / RFU, DNAJC13 / Fold change vs veh, DNAJC13 / RFU, GNAQ / Fold change vs veh, GNAQ / RFU, CDK5R1 / Fold change vs veh, CDK5R1 / RFU, ZRANB3 / Fold change vs veh, ZRANB3 / RFU, CUL4A / Fold change vs veh, CUL4A / RFU, CCNY / Fold change vs veh, CCNY / RFU, UFL1 / Fold change vs veh, UFL1 / RFU, COG3 / Fold change vs veh, COG3 / RFU, DIAPH2 / Fold change vs veh, DIAPH2 / RFU, SKA2 / Fold change vs veh, SKA2 / RFU, AFF3 / Fold change vs veh, AFF3 / RFU, LMF1 / Fold change vs veh, LMF1 / RFU, IPO11 / Fold change vs veh, IPO11 / RFU, DFFB / Fold change vs veh, DFFB / RFU, FOXP1 / Fold change vs veh, FOXP1 / RFU, CARD8 / Fold change vs veh, CARD8 / RFU, STRN3 / Fold change vs veh, STRN3 / RFU, ADK / Fold change vs veh, ADK / RFU, RASSF2 / Fold change vs veh, RASSF2 / RFU, WIPF1 / Fold change vs veh, WIPF1 / RFU, LARP1B / Fold change vs veh, LARP1B / RFU, RASA1 / Fold change vs veh, RASA1 / RFU, RB1 / Fold change vs veh, RB1 / RFU, PPFIA1 / Fold change vs veh, PPFIA1 / RFU, MAT2A / Fold change vs veh, MAT2A / RFU, CCT5 / Fold change vs veh, CCT5 / RFU, WDR92 / Fold change vs veh, WDR92 / RFU, CUX1 / Fold change vs veh, CUX1 / RFU, TTC7A / Fold change vs veh, TTC7A / RFU, TMEM135 / Fold change vs veh, TMEM135 / RFU, DEPTOR / Fold change vs veh, DEPTOR / RFU, CPM / Fold change vs veh, CPM / RFU, DNAJB6 / Fold change vs veh, DNAJB6 / RFU, CACNA2D3 / Fold change vs veh, CACNA2D3 / RFU, DTX4 / Fold change vs veh, DTX4 / RFU, TFCP2 / Fold change vs veh, TFCP2 / RFU, GMCL1 /// GMCL1P1 / Fold change vs veh, GMCL1 /// GMCL1P1 / RFU, AEBP2 / Fold change vs veh, AEBP2 / RFU, SNHG1 /// SNORD22 /// SNORD25 /// SNORD26 /// SNORD27 /// SNORD28 /// SNORD29 /// SNORD31 / Fold change vs veh, SNHG1 /// SNORD22 /// SNORD25 /// SNORD26 /// SNORD27 /// SNORD28 /// SNORD29 /// SNORD31 / Fold change (Aza/veh), C12orf56 (ProbeSet 11735607_a_at) / Fold change (ACY-1035/veh), C12orf56 (ProbeSet 11735607_a_at) / Fold change (Aza/veh), FGFR1OP (ProbeSet 11751329_s_at) / Fold change (ACY-1035/veh), FGFR1OP (ProbeSet 11751329_s_at) / Fold change (Aza/veh), VPS36 (ProbeSet 11739960_a_at) / Fold change (ACY-1035/veh), VPS36 (ProbeSet 11739960_a_at) / RFU SYPL1 (11715823_x_at) / Fold change /veh SYPL1 (11715823_x_at) / RFU IGFBP7 (11715501_s_at) / Fold change /veh IGFBP7 (11715501_s_at) / RFU REEP3 (11722064_at) / Fold change /veh REEP3 (11722064_at) / RFU IGLL1 (11728026_x_at) / Fold change /veh IGLL1 (11728026_x_at): dose or concentration left out as unconfirmed
Settings: ProbeSet 11717876_a_at; LIST D

## Nc1ncn([C@@H]2O[C@H](CO)[C@@H](O)[C@H]2O)c(=O)n1 [azacitidine]
  Fold change vs veh, PPFIA1: 0.68
